Results on one cell line are retold here after the supplement of paper PMC10307832.

Holding throughout (assay): relative viability (nuclei count vs DMSO), 5 days (fraction); higher = more cells survive
Compound in the assay “AZD1208 + Tozasertib”: N[C@@H]1CCCN(c2c(/C=C3\SC(=O)NC3=O)cccc2-c2ccccc2)C1 [AZD1208] + Cc1cc(Nc2cc(N3CCN(C)CC3)nc(Sc3ccc(NC(=O)C4CC4)cc3)n2)n[nH]1 [Tozasertib] (partner 0.1 µM)
In outline: (§1)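 Lung cancer cell lines in 1536-well plates got either a single drug or a fixed anchor-drug dose together with five library-drug doses (not always all listed) in √10 steps, by pin tool, on the day after seeding. Nuclei were counted after 5 days, and relative viability is the treated-to-vehicle ratio of nuclei counts. Values are medians of duplicate plates.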

Compound in the assay “XMD14-99 + OSI-027”: CN1CCN(CC1)C2=CC(=C(C=C2)NC3=NC(=C(S3)C(=O)C4=C(C=CC=C4Cl)Cl)N)OC [XMD14-99] + COc1cccc2cc(-c3nc([C@H]4CC[C@H](C(=O)O)CC4)n4ncnc(N)c34)[nH]c12 [OSI-027] (partner 0.5 µM)
The procedure, abridged:
as §1

Compound in the assay “AZD1208 + Bortezomib”: N[C@@H]1CCCN(c2c(/C=C3\SC(=O)NC3=O)cccc2-c2ccccc2)C1 [AZD1208] + CC(C)C[C@H](NC(=O)[C@H](Cc1ccccc1)NC(=O)c1cnccn1)B(O)O [Bortezomib] (partner 0.002 µM)
In outline:
as §1

Compound in the assay “XMD14-99 + Navitoclax”: CN1CCN(CC1)C2=CC(=C(C=C2)NC3=NC(=C(S3)C(=O)C4=C(C=CC=C4Cl)Cl)N)OC [XMD14-99] + CC1(C)CCC(c2ccc(Cl)cc2)=C(CN2CCN(c3ccc(C(=O)NS(=O)(=O)c4ccc(N[C@H](CCN5CCOCC5)CSc5ccccc5)c(S(=O)(=O)C(F)(F)F)c4)cc3)CC2)C1 [Navitoclax] (partner 0.5 µM)
The procedure, abridged:
as §1

Regarding UMC-11, the relative viability with AZD1208 + Tozasertib (first compound 0.08 µM) was 0.204; with AZD1208 + Tozasertib (first compound 0.253 µM) it was 0.205; in the assay with AZD1208 + Tozasertib (first compound 0.8 µM) it was 0.211; in the assay with AZD1208 + Tozasertib (first compound 2.53 µM), 0.207; with AZD1208 + Tozasertib (first compound 8 µM), 0.21; in the assay with XMD14-99 + OSI-027 (first compound 0.08 µM) it was 0.495. For the same cell line, the relative viability with XMD14-99 + OSI-027 (first compound 0.8 µM) was found to be 0.46; with XMD14-99 + OSI-027 (first compound 2.53 µM), 0.421; in the assay with XMD14-99 + OSI-027 (first compound 8 µM) it was 0.359; in the assay with AZD1208 + Bortezomib (first compound 0.08 µM) it was 0.742; in the assay with AZD1208 + Bortezomib (first compound 0.253 µM) it was 0.755; with AZD1208 + Bortezomib (first compound 0.8 µM) it was 0.644. The relative viability with AZD1208 + Bortezomib (first compound 2.53 µM) amounted to 0.62; in the assay with AZD1208 + Bortezomib (first compound 8 µM) it was 0.374; with XMD14-99 + Navitoclax (first compound 0.08 µM), 0.308; with XMD14-99 + Navitoclax (first compound 0.8 µM), 0.33; with XMD14-99 + Navitoclax (first compound 2.53 µM), 0.343; with XMD14-99 + Navitoclax (first compound 8 µM), 0.317.
